According to US20240199538A1, “Novel Chlorhexidine Salts and Related Compositions and Methods” (Colgate-Palmolive Company, priority 2022, published 2024):

Assay: CHG and CHG-SLS mixture aging study, CHX degradation products by GC-MS
Type: physicochemical
Conditions: aqueous 20% CHG solution, 60° C. oven
Protocol: Sample preparation for CHX degradation analysis by using GCMS analysis: Both aged solutions are taken from the 60° C.oven. They are diluted at 1:3.5 ratios with methanol. Both solutions are filtrated with a 0.20 um PTFE filter, respectively, then they are diluted again at a 1:10 dilution ratio with methanol and then transferred into a ROBO autosampler vials for GC-MS analysis. The gas chromatography system 6890N with 5972 MS detector plus Gerstel MPS-2 autosampler (Agilenet Technologies, Santa, Clara, CA, USA) is used for detection of CHX degradation products. Separation is accomplished using GC column of HP-5MS (30 m×0.25 mm×0.25 um, length×inside diameter×film thickness, Agilent Technologies). The 1 μL sample is injected with the splitless mode. The oven temperature is initially held at 80° C.for 1 min. Thereafter the temperature is raised at 6° C./min until 300° C.and held for 2.33 min. Total running time is 40 minutes. Helium is used as the carrier gas and delivered at a constant flow rate at 1 mL/min (the pressure at 9.38 psi and velocity at 37 cm/sec). The injector temperature is set at 250° C. and the interface temperature between GC oven and MS detector is250° C. […]

Peak integration for CHX degradation product at 3 weeks (3 weeks): 523490
Peak integration for CHX degradation product at 6 weeks (6 weeks): 7560037
Compound: N=C(NCCCCCCNC(=N)NC(=N)Nc1ccc(Cl)cc1)NC(=N)Nc1ccc(Cl)cc1.O=C(O)[C@H](O)[C@@H](O)[C@H](O)[C@H](O)CO.O=C(O)[C@H](O)[C@@H](O)[C@H](O)[C@H](O)CO [CHG, chlorhexidine gluconate]
